These results are taken from publication PMC10746543, “Design principles for cyclin K molecular glue degraders” (Nature Chemical Biology, 2023).

The experiment addresses T1, CDK2–cyclin A (Homo sapiens, UniProt P24941).
T1 construct: purchased Thermo Fisher
As to the kind of experiment: Lanthascreen kinase binding assay, CDK2. The conditions noted are these: for Lanthascreen signal, sheet CDK2: raw replicates; for pIC50: Lanthascreen, average, Extended Data Fig. 8, read-out: CDK2 IC50; for IC50: Supplementary Table 2, read-out: Lanthascreen IC50 [nM] CDK2. As for the experimental part:
Lanthascreen experiments were performed using commercially available reagents (Thermo Fisher) and according to the manufacturer’s instructions.
For orientation: In TR-FRET formats the signal depends on donor and acceptor labels being close together.

Where [1] appears, read: Compound 0.038147 nM, experiment r13-r23.
Where [2] appears, read: Compound 0.152588 nM, experiment r13-r23.
Setting [3] is: Compound 0.610352 nM, experiment r13-r23.
[4] abbreviates: Compound 1.02544 nM, experiment r1-r11.
Where [5] appears, read: Compound 3.15521 nM, experiment r1-r11.
[6] abbreviates: Compound 9.46563 nM, experiment r1-r11.
[7] abbreviates: Compound 9.76563 nM, experiment r13-r23.
The mark [8] stands for this setting: Compound 31.5521 nM, experiment r1-r11.
Setting [9] is: Compound 39.0625 nM, experiment r13-r23.
Setting [10] is: Compound 99.3891 nM, experiment r1-r11.
Setting [11] is: Compound 156.25 nM, experiment r13-r23.
The mark [12] stands for this setting: Compound 315.521 nM, experiment r1-r11.
Where [13] appears, read: Compound 625 nM, experiment r13-r23.
The mark [14] stands for this setting: Compound 2500 nM, experiment r13-r23.
[15] abbreviates: Compound 3155.21 nM, experiment r1-r11.
[16] abbreviates: Compound 10000 nM, experiment r13-r23.
Setting [17] is: Compound 10002 nM, experiment r1-r11.

pIC50: −log10 of the molar value. “And” between values parts separate entries of the source, which are not always exact repeats. Equal entries are not always repeated. Where two headings read alike, the source gives them in different places.

Take `O=C(CSc1nnc2c(n1)[nH]c1ccccc12)Nc1ccc(Cl)cn1` [dCeMM2]: the pIC50 is less than 5.00 and the half-maximal inhibitory concentration (IC50) was greater than 10000 nM. Further, under setting [1], the “Lanthascreen signal, sheet CDK2” value is 0.01324 and 0.0125. Further, the “Lanthascreen signal, sheet CDK2” value under setting [2] was 0.01322 and 0.0127. Also, the “Lanthascreen signal, sheet CDK2” value under setting [3] was 0.01294 and 0.01324. Further, under setting [4], the “Lanthascreen signal, sheet CDK2” value was 0.01157 and 0.009543. For the same molecule, the “Lanthascreen signal, sheet CDK2” value under setting [5] was 0.01134 and 0.008854. For the same molecule, under setting [6], the “Lanthascreen signal, sheet CDK2” value is 0.008629 and 0.01226. The “Lanthascreen signal, sheet CDK2” value under setting [7] was 0.01333 and 0.01313. For the same molecule, under setting [8], the “Lanthascreen signal, sheet CDK2” value is 0.009538 and 0.01114. Further, the “Lanthascreen signal, sheet CDK2” value under setting [9] was 0.01348 and 0.0134. In addition, the “Lanthascreen signal, sheet CDK2” value under setting [10] was 0.01108 and 0.01101. In addition, the “Lanthascreen signal, sheet CDK2” value under setting [11] was 0.01287 and 0.01355. In addition, the “Lanthascreen signal, sheet CDK2” value under setting [12] was 0.0103 and 0.01153. Under setting [13], the “Lanthascreen signal, sheet CDK2” value was 0.01294 and 0.01314. Moreover, under setting [14], the “Lanthascreen signal, sheet CDK2” value was 0.01073 and 0.0108. Under setting [15], the “Lanthascreen signal, sheet CDK2” value is 0.01038 and 0.01039. Moreover, the “Lanthascreen signal, sheet CDK2” value under setting [16] was 0.01123 and 0.01202. Also, the “Lanthascreen signal, sheet CDK2” value under setting [17] was 0.01161 and 0.009572.

Consider `O=C(CSc1nc2ccccc2[nH]1)Nc1ccc(Cl)cn1` [dCeMM3], for which the pIC50 was less than 5.00 and the IC50 was greater than 10000 nM. In addition, the “Lanthascreen signal, sheet CDK2” value under setting [1] was 0.01285 and 0.01289. For the same molecule, the “Lanthascreen signal, sheet CDK2” value under setting [2] is 0.01318 and 0.01321. The “Lanthascreen signal, sheet CDK2” value under setting [3] was 0.01258 and 0.01278. Also, the “Lanthascreen signal, sheet CDK2” value under setting [4] was 0.008366 and 0.009193. Further, the “Lanthascreen signal, sheet CDK2” value under setting [5] is 0.01197 and 0.009076. Besides, the “Lanthascreen signal, sheet CDK2” value under setting [6] is 0.01142 and 0.01118. Further, the “Lanthascreen signal, sheet CDK2” value under setting [7] is 0.01261 and 0.01356. Besides, the “Lanthascreen signal, sheet CDK2” value under setting [8] is 0.01118 and 0.009287. Under setting [9], the “Lanthascreen signal, sheet CDK2” value was 0.01377 and 0.01313. In addition, under setting [10], the “Lanthascreen signal, sheet CDK2” value was 0.01102 and 0.008633. Further, under setting [11], the “Lanthascreen signal, sheet CDK2” value is 0.01301 and 0.01263. For the same molecule, the “Lanthascreen signal, sheet CDK2” value under setting [12] is 0.01039 and 0.01098. The “Lanthascreen signal, sheet CDK2” value under setting [13] was 0.01331 and 0.01224. Moreover, under setting [14], the “Lanthascreen signal, sheet CDK2” value was 0.0123 and 0.01244. Under setting [15], the “Lanthascreen signal, sheet CDK2” value was 0.0101 and 0.009174. Also, the “Lanthascreen signal, sheet CDK2” value under setting [16] is 0.01049 and 0.00891. Further, the “Lanthascreen signal, sheet CDK2” value under setting [17] was 0.008182 and 0.007001.

The term pIC50 denotes the IC50 on a negative log10 scale, so that one unit is a factor of ten. For orientation: IC50 means the midpoint of a concentration-inhibition curve.
